Measurements reported in PMC9898996 (Bioorganic & medicinal chemistry, 2022).
Each block holds one compound with its values, some of them ahead of it.

How the values were obtained:
[1] = molecular target: T1, human D2 receptor (Homo sapiens, UniProt P14416)
[2] = molecular target: rat D2L receptor (Rattus norvegicus, UniProt P61169); assay type: binding
[3] = molecular target: α-syn (Homo sapiens, UniProt P37840); assay: ThT assay of α-syn aggregation induced by seeding with 0.5% PFFs; assay type: biochemical; conditions: 1.25 mg/mL α-syn + 0.5% PFFs, 30D without shaking, drug 172.9 μM
[4] = test system: PC12 cells; assay: MTT viability of PC12 cells treated with α-syn seeded samples; assay type: cell-based; conditions: samples collected at 0D; drug 20 μM, 24 h
[5] = molecular target: T1, human D2 receptor; conditions: [35S]GTPγS, D2 receptors

rat D2L receptor, sequence (P61169 whole entry): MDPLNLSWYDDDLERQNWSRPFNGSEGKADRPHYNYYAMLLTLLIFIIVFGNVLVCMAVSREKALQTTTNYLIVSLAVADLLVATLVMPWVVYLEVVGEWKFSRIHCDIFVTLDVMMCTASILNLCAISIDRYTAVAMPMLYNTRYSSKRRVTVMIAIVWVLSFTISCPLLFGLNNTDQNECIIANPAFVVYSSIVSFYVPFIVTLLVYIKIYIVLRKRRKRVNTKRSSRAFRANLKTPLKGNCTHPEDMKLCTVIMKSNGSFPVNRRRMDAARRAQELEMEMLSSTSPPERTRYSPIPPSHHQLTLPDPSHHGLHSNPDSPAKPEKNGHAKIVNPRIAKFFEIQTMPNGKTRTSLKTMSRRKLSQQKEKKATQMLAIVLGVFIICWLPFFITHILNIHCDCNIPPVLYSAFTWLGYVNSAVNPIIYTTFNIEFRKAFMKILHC
T1 sequence (P14416 whole entry): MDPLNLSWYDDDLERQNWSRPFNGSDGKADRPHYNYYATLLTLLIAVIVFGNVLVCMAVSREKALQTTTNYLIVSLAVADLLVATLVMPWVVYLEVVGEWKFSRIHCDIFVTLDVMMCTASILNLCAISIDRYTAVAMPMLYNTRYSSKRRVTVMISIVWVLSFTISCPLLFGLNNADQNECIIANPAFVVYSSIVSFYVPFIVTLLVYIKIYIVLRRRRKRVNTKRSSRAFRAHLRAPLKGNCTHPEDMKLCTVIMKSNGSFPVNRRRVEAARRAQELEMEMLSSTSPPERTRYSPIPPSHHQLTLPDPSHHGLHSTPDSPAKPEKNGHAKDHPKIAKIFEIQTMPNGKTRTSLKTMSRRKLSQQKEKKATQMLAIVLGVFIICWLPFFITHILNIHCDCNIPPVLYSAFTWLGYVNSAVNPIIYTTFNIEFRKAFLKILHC

Compound: CCCN(CCC)C1CCc2c(O)cccc2C1 (single isomer, unassigned; (-)) [(−)-5-OH-DPAT, 5-OH-DPAT]
- Emax [1]: 80 ± 4%

Compound: CCCN(CC(=O)N1CCN(C(=O)CN(CCC)[C@H]2CCc3c(O)cccc3C2)CC1)[C@H]1CCc2c(O)cccc2C1 [Compound D-380, (s)-1,1’-(piperazine-1,4-diyl)bis(2-(((s)-5-hydroxy-1,2,3,4-tetrahydronaphthalen-2-yl)(propyl)amino)ethanone)]
- Activity at DA receptors (binding, in words) ([2]; D2/D3 receptor binding): little to no activity
- Inhibition of [3H]spiroperidol binding, D2L ([2]; at 100 μM, cloned rat D2L in HEK-293 cells): No Inhibition at 100 μM

Compound: CCCN(CCc1ccc(CCN(CCC)[C@H]2CCc3c(O)cccc3C2)cc1)[C@H]1CCc2c(O)cccc2C1 [Compound D-382, (6s,6’s)-6,6’-(2,2’-(1,4-phenylene)bis(ethane-2,1-diyl))bis(propylazanediyl)bis(5,6,7,8-tetrahydronaphthalen-1-ol)]
- Increase in affinity for D2 receptors compared to D-381 ([2]; binding, D2 receptors): greater than threefold increase

Compound: Br.Br.CCCN(CCc1cc(O)c(CCN(CCC)[C@H]2CCc3c(O)cccc3C2)cc1O)[C@H]1CCc2c(O)cccc2C1 [Compound D-666, 2,5-Bis(2-(((S)-5-hydroxy-1,2,3,4-tetrahydronaphthalen-2-yl)(propyl)amino)ethyl)benzene-1,4-diol]
- Inhibition of α-syn aggregation (ThT signal) [3]: inhibited the aggregation completely
- Toxicity of compound by itself (PC12 viability, MTT) [4]: do not see such toxicity

- Inhibition of α-syn aggregation (ThT signal) [3]: inhibited the aggregation completely
- D2 functional potency compared to pramipexole [5]: more than 7 fold
Compound: CCCN(CCc1cc(O)c(CCN(CCC)[C@H]2CCc3nc(N)sc3C2)cc1O)[C@H]1CCc2nc(N)sc2C1 [Compound D-673, 2,5-bis(2-(((S)-2-amino-4,5,6,7-tetrahydrobenzo[d]thiazol-6-yl)(propyl)amino)-ethyl)benzene-1,4-diol]
- Toxicity of compound by itself (PC12 viability, MTT) [4]: shows toxicity
